“And” between values parts separate entries of the source, which are not always exact repeats. Identical values can stand only once.

This series deals with Voltage-gated inwardly rectifying potassium channel KCNH2 (Homo sapiens, UniProt Q12809). Nature of the series: Determination of a Possible Activity on hERG: The hERG (human ether-A-go-go-related gene) channel corresponds to an important anti-target for potential new drugs since its inhibition may lead to sudden death. In order to establish whether the compounds of the present invention act on hERG, the following experiment was carried out.The in vitro effects of the compounds indicated in Table 5 on the …. The class given is cell-based. On the technique in general: The hERG channel carries a current that helps repolarise heart muscle cells.
Sequence of Voltage-gated inwardly rectifying potassium channel KCNH2 (Q12809 whole entry): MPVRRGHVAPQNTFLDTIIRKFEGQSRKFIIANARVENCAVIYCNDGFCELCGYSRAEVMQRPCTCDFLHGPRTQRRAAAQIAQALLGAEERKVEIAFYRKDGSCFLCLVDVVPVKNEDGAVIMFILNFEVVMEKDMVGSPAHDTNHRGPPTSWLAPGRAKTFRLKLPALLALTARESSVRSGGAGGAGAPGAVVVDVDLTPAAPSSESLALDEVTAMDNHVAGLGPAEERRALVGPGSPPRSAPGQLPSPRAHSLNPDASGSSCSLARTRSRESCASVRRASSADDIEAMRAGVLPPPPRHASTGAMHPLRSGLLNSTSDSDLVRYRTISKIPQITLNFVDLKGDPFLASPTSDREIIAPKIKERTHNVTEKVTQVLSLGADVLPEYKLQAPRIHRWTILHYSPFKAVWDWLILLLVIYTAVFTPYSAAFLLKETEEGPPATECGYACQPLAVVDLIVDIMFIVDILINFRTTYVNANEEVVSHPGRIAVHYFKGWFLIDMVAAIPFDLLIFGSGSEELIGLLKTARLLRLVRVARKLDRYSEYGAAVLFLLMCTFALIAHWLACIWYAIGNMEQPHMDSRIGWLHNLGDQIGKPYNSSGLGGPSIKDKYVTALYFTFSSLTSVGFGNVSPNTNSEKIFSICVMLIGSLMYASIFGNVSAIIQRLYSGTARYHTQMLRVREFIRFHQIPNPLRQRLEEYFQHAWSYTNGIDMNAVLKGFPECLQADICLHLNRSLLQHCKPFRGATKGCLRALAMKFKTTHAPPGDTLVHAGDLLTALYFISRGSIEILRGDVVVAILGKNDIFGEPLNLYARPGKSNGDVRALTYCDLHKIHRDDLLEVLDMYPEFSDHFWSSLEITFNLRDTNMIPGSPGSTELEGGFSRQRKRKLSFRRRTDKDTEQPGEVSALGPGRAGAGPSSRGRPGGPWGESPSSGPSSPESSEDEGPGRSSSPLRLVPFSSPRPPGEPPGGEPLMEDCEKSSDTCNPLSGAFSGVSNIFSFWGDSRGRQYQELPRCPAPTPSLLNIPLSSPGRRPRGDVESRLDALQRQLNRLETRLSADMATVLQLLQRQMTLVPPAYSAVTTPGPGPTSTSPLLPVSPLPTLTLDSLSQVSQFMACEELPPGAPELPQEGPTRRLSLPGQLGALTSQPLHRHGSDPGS

A word on the IC50: it is the point on the concentration scale where inhibition reaches its midpoint. A lower IC50 goes with inhibition by little substance. On to `CCn1c(N2CCNCC2)nc2c([N+](=O)[O-])c(Br)c(Br)cc21`, for which half-maximal inhibition (IC50) was put at 16.9 µM.

Take `CCn1c(N2CCNC(=O)C2)nc2c([N+](=O)[O-])c(Br)c(Br)cc21`: the IC50 was 1.78 µM and 11.9 µM.

For the origin of these results see ChEMBL document CHEMBL5726153, “Benzimidazole derivatives as kinase inhibitors” (2019).
